{
  "source": "ChEMBL document CHEMBL3046594",
  "about": "“Bioactive metabolites from an endophytic fungus of Aspergillus species isolated from seeds of Gloriosa superba Linn” (Med Chem Res, 2013)",
  "key": {"[1]": {"system": "Candida albicans", "assay": "Antifungal activity against Candida albicans MTCC 3018 assessed as growth inhibition at 2 mg/mL after 48 hr by disk diffusion method", "format": "functional"}, "[2]": {"system": "Staphylococcus aureus", "assay": "Antibacterial activity against Staphylococcus aureus MTCC 96 assessed as growth inhibition after 24 hr by broth dilution method", "format": "functional", "settings": "MTCC 96, 24 h"}, "[3]": {"system": "Salmonella typhi", "assay": "Antibacterial activity against Salmonella enterica subsp. enterica serovar Typhi MTCC 1251 assessed as growth inhibition at 2 mg/mL after 24 hr by disk diffusion method", "format": "functional, organism-based"}, "[4]": {"system": "Candida albicans", "assay": "Antifungal activity against Candida albicans MTCC 3018 assessed as growth inhibition after 48 hr by broth dilution method", "format": "functional"}, "[5]": {"system": "Pseudomonas aeruginosa", "assay": "Antibacterial activity against Pseudomonas aeruginosa MTCC 2642 assessed as growth inhibition after 24 hr by broth dilution method", "format": "functional"}, "[6]": {"system": "Goffeauzyma gastrica", "assay": "Antifungal activity against Cryptococcus gastricus MTCC 1715 assessed as growth inhibition after 48 hr by broth dilution method", "format": "functional"}, "[7]": {"system": "Bacillus subtilis", "assay": "Antibacterial activity against Bacillus subtilis MTCC 2451 assessed as growth inhibition after 24 hr by broth dilution method", "format": "functional", "settings": "MTCC 2451, 24 h"}, "[8]": {"system": "Escherichia coli", "assay": "Antibacterial activity against Escherichia coli MTCC 82 assessed as growth inhibition after 24 hr by broth dilution method", "format": "functional", "settings": "MTCC 82, 24 h"}, "[9]": {"system": "Saccharomyces cerevisiae", "assay": "Antifungal activity against Saccharomyces cerevisiae MTCC 172 assessed as growth inhibition after 48 hr by broth dilution method", "format": "functional"}, "[10]": {"system": "Staphylococcus aureus", "assay": "Antibacterial activity against Staphylococcus aureus MTCC 96 assessed as growth inhibition at 2 mg/mL after 24 hr by disk diffusion method", "format": "functional", "settings": "MTCC 96, 24 h, read-out: DIZ"}, "[11]": {"system": "Goffeauzyma gastrica", "assay": "Antifungal activity against Cryptococcus gastricus MTCC 1715 assessed as growth inhibition at 2 mg/mL after 48 hr by disk diffusion method", "format": "functional"}, "[12]": {"system": "Salmonella typhi", "assay": "Antibacterial activity against Salmonella enterica subsp. enterica serovar Typhi MTCC 1251 assessed as growth inhibition after 24 hr by broth dilution method", "format": "functional, organism-based"}, "[13]": {"system": "Escherichia coli", "assay": "Antibacterial activity against Escherichia coli MTCC 82 assessed as growth inhibition at 2 mg/mL after 24 hr by disk diffusion method", "format": "functional"}, "[14]": {"system": "Pseudomonas aeruginosa", "assay": "Antibacterial activity against Pseudomonas aeruginosa MTCC 2642 assessed as growth inhibition at 2 mg/mL after 24 hr by disk diffusion method", "format": "functional"}, "[15]": {"system": "Saccharomyces cerevisiae", "assay": "Antifungal activity against Saccharomyces cerevisiae MTCC 172 assessed as growth inhibition at 2 mg/mL after 48 hr by disk diffusion method", "format": "functional"}, "[16]": {"system": "Bacillus subtilis", "assay": "Antibacterial activity against Bacillus subtilis MTCC 2451 assessed as growth inhibition at 2 mg/mL after 24 hr by disk diffusion method", "format": "functional"}, "[17]": {"system": "Candida albicans", "assay": "Antifungal activity against Candida albicans MTCC 3018 assessed as growth inhibition at 10 ug/disk after 48 hr by disk diffusion method", "format": "functional", "settings": "MTCC 3018, 48 h, read-out: DIZ"}, "[18]": {"system": "Saccharomyces cerevisiae", "assay": "Antifungal activity against Saccharomyces cerevisiae MTCC 172 assessed as growth inhibition at 10 ug/disk after 48 hr by disk diffusion method", "format": "functional", "settings": "MTCC 172, 48 h, read-out: DIZ"}, "[19]": {"system": "Goffeauzyma gastrica", "assay": "Antifungal activity against Cryptococcus gastricus MTCC 1715 assessed as growth inhibition at 10 ug/disk after 48 hr by disk diffusion method", "format": "functional", "settings": "MTCC 1715, 48 h, read-out: DIZ"}, "[20]": {"system": "CV-1", "assay": "Cytotoxicity against Chlorocebus aethiops (African green monkey) CV1 cells assessed as growth inhibition at 20 uM after 48 hr by SRB assay", "format": "functional", "settings": "CV-1, 48 h, read-out: GI"}, "[21]": {"system": "A549", "assay": "Cytotoxicity against Homo sapiens (human) A549 cells assessed as growth inhibition at 20 uM after 48 hr by SRB assay", "format": "functional", "settings": "A549, 48 h, read-out: GI"}, "[22]": {"system": "HEp-2", "assay": "Cytotoxicity against Homo sapiens (human) Hep2 cells assessed as growth inhibition at 20 uM after 48 hr by SRB assay", "format": "functional", "settings": "HEp-2, 48 h, read-out: GI"}, "[23]": {"system": "THP-1", "assay": "Cytotoxicity against Homo sapiens (human) THP1 cells assessed as growth inhibition at 20 uM after 48 hr by SRB assay", "format": "functional", "settings": "THP-1, 48 h, read-out: GI"}},
  "note": "The source made the active and inactive calls. The calls are words filed in the database; no cut-off is given here.",
  "data": [
    {"smiles": "O=Cc1ccc(CO)o1", "note": "[AES-103]", "values": [
      {"measurement": "growth inhibition (GI)", "setting": "[1]", "result": "inactive"},
      {"measurement": "MIC", "setting": "[2]", "result": 200, "unit": "µg/mL"},
      {"measurement": "growth inhibition (GI)", "setting": "[3]", "result": "inactive"},
      {"measurement": "MIC", "setting": "[4]", "result": "inactive"},
      {"measurement": "MIC", "setting": "[5]", "result": "inactive"},
      {"measurement": "MIC", "setting": "[6]", "result": "inactive"},
      {"measurement": "MIC", "setting": "[7]", "result": 100, "unit": "µg/mL"},
      {"measurement": "MIC", "setting": "[8]", "result": 400, "unit": "µg/mL"},
      {"measurement": "MIC", "setting": "[9]", "result": "inactive"},
      {"measurement": "zone of inhibition at 2000 µg/mL", "setting": "[10]", "result": 13.1, "unit": "mm"},
      {"measurement": "growth inhibition (GI)", "setting": "[11]", "result": "inactive"},
      {"measurement": "MIC", "setting": "[12]", "result": "inactive"},
      {"measurement": "zone of inhibition at 2000 µg/mL", "setting": "[13]; MTCC 82, 24 h, read-out: DIZ", "result": 9, "unit": "mm"},
      {"measurement": "growth inhibition (GI)", "setting": "[14]", "result": "inactive"},
      {"measurement": "zone of inhibition at 2000 µg/mL", "setting": "[15]; MTCC 172, 48 h, read-out: DIZ", "result": 8.1, "unit": "mm"},
      {"measurement": "zone of inhibition at 2000 µg/mL", "setting": "[16]; MTCC 2451, 24 h, read-out: DIZ", "result": 11.5, "unit": "mm"}
    ]},
    {"smiles": "OC(Cn1cncn1)(Cn1cncn1)c1ccc(F)cc1F", "note": "[FLUCONAZOLE]", "values": [
      {"measurement": "zone of inhibition at 10 µg/disc", "setting": "[17]", "result": 20, "unit": "mm"},
      {"measurement": "zone of inhibition at 10 µg/disc", "setting": "[18]", "result": 21, "unit": "mm"},
      {"measurement": "zone of inhibition at 10 µg/disc", "setting": "[19]", "result": 19.7, "unit": "mm"}
    ]},
    {"smiles": "CC(C)[C@@H](C)/C=C/[C@@H](C)[C@H]1CC[C@H]2C3=CC=C4C[C@@H](O)CC[C@]4(C)[C@H]3CC[C@]12C", "note": "[ERGOSTEROL]", "values": [
      {"measurement": "growth inhibition (GI)", "setting": "[1]", "result": "inactive"},
      {"measurement": "growth inhibition (GI)", "setting": "[3]", "result": "inactive"},
      {"measurement": "zone of inhibition at 2000 µg/mL", "setting": "[10]", "result": 11.2, "unit": "mm"},
      {"measurement": "growth inhibition (GI)", "setting": "[11]", "result": "inactive"},
      {"measurement": "growth inhibition (GI)", "setting": "[13]", "result": "inactive"},
      {"measurement": "zone of inhibition at 2000 µg/mL", "setting": "[14]; MTCC 2642, 24 h, read-out: DIZ", "result": 8.7, "unit": "mm"},
      {"measurement": "growth inhibition (GI)", "setting": "[15]", "result": "inactive"},
      {"measurement": "growth inhibition (GI)", "setting": "[16]", "result": "inactive"}
    ]},
    {"smiles": "O=c1[nH]cc(F)c(=O)[nH]1", "note": "[FLUOROURACIL]", "values": [
      {"measurement": "inhibition of growth at 20 µM", "setting": "[20]", "result": 43, "unit": "%"},
      {"measurement": "inhibition of growth at 20 µM", "setting": "[21]", "result": 79, "unit": "%"},
      {"measurement": "inhibition of growth at 20 µM", "setting": "[22]", "result": 87, "unit": "%"},
      {"measurement": "inhibition of growth at 20 µM", "setting": "[23]", "result": 79, "unit": "%"}
    ]}
  ]
}
